This passage reports IC50 results from BindingDB's records for doi:10.1016/s0960-894x(00)00136-0 (Iowa State University, 2000).

Assay [1] has as its target Endothelin receptor type B (rabbit). The assay can be described thus: Tested for binding affinity towards rabbit Endothelin B receptor.
For assay [2], the target named is Endothelin-1 receptor (rabbit). The assay can be described thus: Tested for binding affinity towards rabbit Endothelin A receptor.

Structures are written as SMILES.

On to `C/C=C/C=C/C(=O)O[C@@H]1C=C2COC(O)[C@]2(O)[C@@]2(C)CCCC(C)(C)C12` (stereo partly drawn) [(2E,4E)-Hexa-2,4-dienoic acid (5R,9aS,9bS)-1,9b-dihydroxy-6,6,9a-trimethyl-1,3,5,5a,6,7,8,9,9a,9b-decahydro-naphtho[1,2-c]furan-5-yl ester], for which the results for the half-maximal inhibitory concentration (IC50) in assay [1] and in assay [2] were 70 µM and 50 µM, respectively.
